In experiment [1] the target is T1, B1R receptor of the rat (bradykinin 1 receptor) (Rattus norvegicus, UniProt P97583).
T1 construct: host or cells: CHO K1 cells (rB1R cells)
T1 sequence (P97583 1-337): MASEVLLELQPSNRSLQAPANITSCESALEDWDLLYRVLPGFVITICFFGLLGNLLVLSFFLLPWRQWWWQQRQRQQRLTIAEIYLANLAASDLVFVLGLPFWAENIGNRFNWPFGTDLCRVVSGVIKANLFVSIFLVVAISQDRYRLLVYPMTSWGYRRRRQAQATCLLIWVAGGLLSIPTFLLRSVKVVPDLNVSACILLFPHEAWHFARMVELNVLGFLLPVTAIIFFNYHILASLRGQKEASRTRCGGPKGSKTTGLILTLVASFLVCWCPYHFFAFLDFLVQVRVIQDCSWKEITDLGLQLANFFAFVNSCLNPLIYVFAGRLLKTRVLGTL
Briefly: FLIPR Ca2+ assay (Fluo-4) on CHO K1 cells stably transfected with the B1R gene of the rat; % activation and % inhibition at 10 μM. In kind it is cell-based. To be noted: CHO-K1, test substance 10 μM; CHO K1 rB1R cells; Ca2+ inflow after 100 nM Des-Arg9-bradykinin; read-out: B1R antagonism, rat [10 μM] % inhibition. How it is done: The agonistic or antagonistic action of substances can be quantified on the bradykinin receptor 1 (B1R) of the species human and rat with ectopically expressing cell lines (CHO K1 cells) and with the aid of a Ca^2+-sensitive dye (Fluo-4) using a fluorescent imaging plate reader (FLIPR). The indication in % activation is based on the Ca^2+ signal after addition of Lys-Des-Arg^9-bradykinin (0.5 nM) or Des-Arg^9-bradykinin (100 nM). Antagonists result in a suppression of the Ca^2+ influx following administration of the agonist. The % inhibition in comparison with the maximum achievable inhibition is indicated.
Functional Investigation on the Bradykinin 1 Receptor (B1R)
The agonistic or antagonistic action of substances can be determined on the bradykinin 1 receptor (B1R) of the human and rat species with the following assay. According to this assay, the Ca^2+ inflow through the channel is quantified with the aid of a Ca^2+-sensitive dyes (Fluo-4 type, Molecular Probes Europe BV, Leiden, The Netherlands) in a fluorescent imaging plate reader (FLIPR, Molecular Devices, Sunnyvale, USA).
Chinese Hamster Ovary cells (CHO K1 cells) which are stably transfected with the human B1R gene (hB1R cells, Euroscreen s.a., Gosselies, Belgium) or the B1R gene of the rat (rB1R cells, Axxam, Milan, Italy) are used. For functional investigations, these cells are plated-out on black 96-well plates with a clear base (BD Biosciences, Heidelberg, Germany) in a density of 20,000-25,000 cells/well. Overnight, the cells are incubated at 37° C. and 5% CO2 in culture medium (hB1R cells: Nutrient Mixture Ham's F12, Gibco Invitrogen GmbH, Karlsruhe, Germany; rB1R cells: D-MEM/F12, Gibco Invitrogen, Karlsruhe, Germany) with 10 vol. % FBS (foetal bovine serum, Gibco Invitrogen GmbH, Karlsruhe, Germany). On the following day, the cells are loaded with 2.13 μM Fluo-4 (Molecular Probes Europe BV, Leiden, The Netherlands) in HBSS buffer (Hank's buffered saline solution, Gibco Invitrogen GmbH, Karlsruhe, Germany) […] (Sigma-Aldrich, Taufkirchen, Germany) and 10 mM HEPES (Sigma-Aldrich, Taufkirchen, Germany) for 60 min at 37° C. The plates are subsequently washed 2× with HBSS buffer, and HBSS buffer which additionally contains 0.1% BSA (bovine serum albumin; Sigma-Aldrich, Taufkirchen, Germany), 5.6 mM glucose and 0.05% gelatine (Merck KGaA, Darmstadt, Germany) is added. After a further incubation of 20 minutes at room temperature, the plates are inserted into the FLIPR for Ca^2+ measurement. The Ca^2+-dependent fluorescence is measured here before and after addition of substances (λex=488 nm, λem=540 nm). The quantification is effected by measurement of the highest fluorescence intensity (FC, fluorescence counts) over time.
The FLIPR protocol comprises 2 additions of substance. Test substances (10 μM) are first pipetted on to the cells and the Ca^2+ inflow is compared with the control (hB1R: Lys-Des-Arg^9-bradykinin 0.5 nM; rB1R: Des-Arg^9-bradykinin 100 nM). The value in % activation based on the Ca^2+ signal after addition of Lys-Des-Arg^9-bradykinin (0.5 nM) or Des-Arg^9-bradykinin (100 nM) is obtained therefrom. After incubation for 10 minutes, 0.5 nM Lys-Des-Arg^9-bradykinin (hB1R) or 100 nM Des-Arg^9-bradykinin (rB1R) are applied and the inflow of Ca^2+ is likewise determined. Antagonists lead to a suppression of the Ca^2+ inflow. % inhibition compared with the maximum inhibition which can be achieved is calculated. The compounds show a good activity on the human and on the rat receptor. The following data were determined by way of example: […]

For experiment [2], the target named is T2, human B1R receptor (bradykinin 1 receptor) (Homo sapiens, UniProt P46663).
T2 construct: host or cells: CHO K1 cells (hB1R cells)
T2 sequence (P46663 1-353): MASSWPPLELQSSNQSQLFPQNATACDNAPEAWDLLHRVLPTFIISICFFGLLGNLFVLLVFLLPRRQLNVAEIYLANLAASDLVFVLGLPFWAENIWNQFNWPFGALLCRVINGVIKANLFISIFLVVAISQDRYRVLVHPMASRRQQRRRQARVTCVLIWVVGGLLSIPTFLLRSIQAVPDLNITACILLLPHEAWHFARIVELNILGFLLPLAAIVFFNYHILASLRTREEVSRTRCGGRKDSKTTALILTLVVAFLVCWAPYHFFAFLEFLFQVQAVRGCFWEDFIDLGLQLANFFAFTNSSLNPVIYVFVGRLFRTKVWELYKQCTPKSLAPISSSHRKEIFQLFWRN
Briefly: FLIPR Ca2+ assay (Fluo-4) on CHO K1 cells stably transfected with the human B1R gene; % activation and % inhibition at 10 μM. In kind it is cell-based. The settings on record: CHO-K1, test substance 10 μM; CHO K1 hB1R cells; Ca2+ inflow after 0.5 nM Lys-Des-Arg9-bradykinin; read-out: B1R antagonism, human [10 μM] % inhibition. Summed up: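 Fluo-4 Ca2+ flux on FLIPR in stable hB1R or rB1R CHO K1 lines, two additions. Agonism: 10 µM compound versus 0.5 nM Lys-Des-Arg9-BK (human) or 100 nM Des-Arg9-BK (rat); antagonism: same agonists applied 10 min later, suppression expressed against maximum achievable inhibition.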

Consider 15 compounds from patent US8580965B2, “Substituted sulfonamide compounds” (Gruenenthal GmbH, priority 2006, dated 2013).

The structures appear in SMILES notation.

In the case of `COc1ccc(S(=O)(=O)N2CCCC2COCC(=O)N2CCC(O)(c3ccncc3)CC2)cc1` (stereo not drawn) [Example 26, 1-(4-hydroxy-3,4,5,6-tetrahydro-2H-[4,4′]bipyridinyl-1-yl)-2-[1-(4-methoxy-phenylsulfonyl)-pyrrolidin-2-ylmethoxy]-ethanone], the values for the inhibition at 10 µM in experiment [1] and in experiment [2] were 5.09% and 9.64%, respectively.

Take `Cc1cc(C)c(S(=O)(=O)N2CCC(OCC(=O)N3CCC(O)(c4ccccn4)CC3)C2)c(C)c1` (stereo not drawn) [Example 30, 1-(4′-hydroxy-3′,4′,5′,6′-tetrahydro-2′H-[2,4′]bipyridinyl-1′-yl)-2-[1-(2,4,6-trimethyl-phenylsulfonyl)-pyrrolidin-3-yloxy]-ethanone]: the inhibition (commonly the relative decrease from the control value, in per cent) at 10 µM in experiment [1] worked out at 17.4%; in experiment [2] it was 6.86%.

As to `CN(c1ccccc1OCC(=O)N1CCC(O)(Cc2ccccc2)CC1)S(=O)(=O)c1ccc(Cl)c(Cl)c1` [Example 33, N-{2-[2-(4-benzyl-4-hydroxy-piperidin-1-yl)-2-oxo-ethoxy]-phenyl}-3,4-dichloro-N-methyl-phenylsulfonamide], the inhibition at 10 µM in experiment [1] came out at 19.4%; in experiment [2], 6.18%.

For the compound `O=C(COC1CCN(S(=O)(=O)c2ccccc2)C1)N1CCC(O)(c2ccccn2)CC1` (stereo not drawn) [Example 34, 2-(1-phenylsulfonyl-pyrrolidin-3-yloxy)-1-(4′-hydroxy-3′,4′,5′,6′-tetrahydro-2′H-[2,4′]bipyridinyl-1′-yl)-ethanone], the inhibition at 10 µM in experiment [1] came out at 40.3%; in experiment [2], 5.93%.

`COc1ccc(S(=O)(=O)N2CCCC2COCC(=O)N2CCC(O)(c3ccccn3)CC2)cc1` (stereo not drawn) [Example 40, 1-(4′-hydroxy-3′,4′,5′,6′-tetrahydro-2′H-[2,4′]bipyridinyl-1′-yl)-2-[1-(4-methoxy-phenylsulfonyl)-pyrrolidin-2-ylmethoxy]-ethanone]: the inhibition at 10 µM in experiment [1] was determined as 61.3%; in experiment [2], 1.84%.

As for `COc1ccc(S(=O)(=O)N(C)CCOCC(=O)N2CCC(O)(c3ccccn3)CC2)cc1OC` [Example 41, N-{2-[2-(4′-hydroxy-3′,4′,5′,6′-tetrahydro-2′H-[2,4′]bipyridinyl-1′-yl)-2-oxo-ethoxy]-ethyl}-3,4-dimethoxy-N-methyl-phenylsulfonamide], the values for the inhibition at 10 µM in experiment [1] and in experiment [2] were -6.31% and 1.29%, respectively.

As to `COc1ccc(S(=O)(=O)N(C)CCOCC(=O)N2CCC(O)(c3ccccn3)CC2)cc1` [Example 42, N-{2-[2-(4′-hydroxy-3′,4′,5′,6′-tetrahydro-2′H-[2,4′]bipyridinyl-1′-yl)-2-oxo-ethoxy]-ethyl}-4-methoxy-N-methyl-phenylsulfonamide], the inhibition at 10 µM in experiment [1] is -38.1%; in experiment [2], 0.67%.

As to `CN(C1CCCCC1OCC(=O)N1CCC(O)(Cc2ccccc2)CC1)S(=O)(=O)c1ccc(Cl)c(Cl)c1` (stereo not drawn) [Example 43, N-{2-[2-(4-benzyl-4-hydroxy-piperidin-1-yl)-2-oxo-ethoxy]-cyclohexyl}-3,4-dichloro-N-methyl-phenylsulfonamide], the inhibition at 10 µM in experiment [1] is 33.9%; in experiment [2], -1.29%.

Consider `COc1ccc(S(=O)(=O)N2CCCCC2CCOCC(=O)N2CCC(O)(c3ccccn3)CC2)cc1` (stereo not drawn) [Example 44, 1-(4′-hydroxy-3′,4′,5′,6′-tetrahydro-2′H-[2,4′]bipyridinyl-1′-yl)-2-{2-[1-(4-methoxy-phenylsulfonyl)-piperidin-2-yl]-ethoxy}-ethanone], for which the inhibition at 10 µM is 76.6% in experiment [1] and -2.3% in experiment [2].

With `O=C(COCCN1CCN(S(=O)(=O)c2ccccc2)CC1)N1CCC(O)(c2ccncc2)CC1` [Example 49, 2-[2-(4-phenylsulfonyl-piperazin-1-yl)-ethoxy]-1-(4-hydroxy-3,4,5,6-tetrahydro-2H-[4,4′]bipyridinyl-1-yl)-ethanone], the values for the inhibition at 10 µM in experiment [1] and in experiment [2] were 7.14% and -5.73%, respectively.

For `COc1ccc(S(=O)(=O)N2Cc3ccccc3CC2COCC(=O)N2CCC(O)(c3ccccn3)CC2)cc1` (stereo not drawn) [Example 50, 1-(4′-hydroxy-3′,4′,5′,6′-tetrahydro-2′H-[2,4′]bipyridinyl-1′-yl)-2-[2-(4-methoxy-phenylsulfonyl)-1,2,3,4-tetrahydro-isoquinolin-3-ylmethoxy]-ethanone], the values for the inhibition at 10 µM in experiment [1] and in experiment [2] were 47.5% and -9.09%, respectively.

As for `O=C(COC1CCCN(S(=O)(=O)c2ccccc2)C1)N1CCC(O)(c2ccccn2)CC1` (stereo not drawn) [Example 51, 2-(1-phenylsulfonyl-piperidin-3-yloxy)-1-(4′-hydroxy-3′,4′,5′,6′-tetrahydro-2′H-[2,4′]bipyridinyl-1′-yl)-ethanone], the inhibition at 10 µM in experiment [1] was 10.8%; in experiment [2], -9.71%.

Regarding `COc1ccc(S(=O)(=O)N2CCC(OCC(=O)N3CCC(O)(c4ccccn4)CC3)C2)cc1OC` (stereo not drawn) [Example 52, 2-[1-(3,4-dimethoxy-phenylsulfonyl)-pyrrolidin-3-yloxy]-1-(4′-hydroxy-3′,4′,5′,6′-tetrahydro-2′H-[2,4′]bipyridinyl-1′-yl)-ethanone], the figures for the inhibition at 10 µM in experiment [1] and in experiment [2] were 11.9% and -10%, respectively.

As to `CN(CCOCC(=O)N1CCC(O)(c2ccccn2)CC1)S(=O)(=O)c1ccc(F)cc1` [Example 56, 4-fluoro-N-{2-[2-(4′-hydroxy-3′,4′,5′,6′-tetrahydro-2′H-[2,4′]bipyridinyl-1′-yl)-2-oxo-ethoxy]-ethyl}-N-methyl-phenylsulfonamide], the inhibition at 10 µM in experiment [1] is -1.13%; in experiment [2] it was -13.5%.

`O=C(COC1CCN(S(=O)(=O)c2ccc(F)cc2)C1)N1CCC(O)(c2ccccn2)CC1` (stereo not drawn) [Example 58, 2-[1-(4-fluoro-phenylsulfonyl)-pyrrolidin-3-yloxy]-1-(4′-hydroxy-3′,4′,5′,6′-tetrahydro-2′H-[2,4′]bipyridinyl-1′-yl)-ethanone]: the values for the inhibition at 10 µM in experiment [1] and in experiment [2] were -7.05% and -23.8%, respectively.
